Laboratory results: ChEMBL document CHEMBL1201862, “PubChem BioAssay data set” (2004)
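Test compounds were applied to cells in 96-well plates for 48 hours at 5 doses. Abbreviation: GI50, concentration required for 50% inhibition of growth.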 The source made the active and inactive calls. No stated cut-off is given here; in the data, active = GI50 up to about 1.1 µM and inactive = higher.

Legend:
Assay in all cases: inhibition of tumour cell growth, NCI panel, 48 h
[1] = test system: SF-295
[2] = test system: IGROV-1
[3] = test system: EKVX
[4] = test system: SW-620
[5] = test system: NCI/ADR-RES
[6] = test system: UO-31
[7] = test system: T47D
[8] = test system: SR
[9] = test system: A498
[10] = test system: RXF 393
[11] = test system: MDA-MB-435
[12] = test system: SK-MEL-2
[13] = test system: ACHN
[14] = test system: RPMI-8226
[15] = test system: DU-145
[16] = test system: CAKI-1
[17] = test system: OVCAR-5
[18] = test system: MDA-MB-231
[19] = test system: SNB-19
[20] = test system: 786-0
[21] = test system: Malme-3M
[22] = test system: HCC 2998
[23] = test system: SF-268
[24] = test system: HCT-15
[25] = test system: UACC-257
[26] = test system: HOP-62
[27] = test system: A549
[28] = test system: TK-10
[29] = test system: OVCAR-8
[30] = test system: OVCAR-3
[31] = test system: SNB-75
[32] = test system: PC-3
[33] = test system: NCI-H226
[34] = test system: HT-29
[35] = test system: LOX IMVI
[36] = test system: SK-MEL-5
[37] = test system: HCT-116
[38] = test system: K562
[39] = test system: Hs-578T
[40] = test system: SK-OV-3
[41] = test system: HL-60
[42] = test system: KM12
[43] = test system: NCI-H522
[44] = test system: MCF7
[45] = test system: SF-539
[46] = test system: U-251
[47] = test system: UACC-62
[48] = test system: COLO 205
[49] = test system: SK-MEL-28
[50] = test system: MOLT-4
[51] = test system: NCI-H23
[52] = test system: MDA-N
[53] = test system: HOP-92
[54] = test system: OVCAR-4
[55] = test system: SN12C
[56] = test system: NCI-H460
[57] = test system: BT-549
[58] = test system: CCRF-CEM
[59] = test system: M14

Structure (SMILES): Cc1c(O)ccc2c(O)c(NC(=O)c3ccc4c(c3)CCC(C)(C)O4)c(=O)oc12 [CYCLONOVOBIOCIC ACID]
- GI50 [1]: > 100 µM (inactive)
- GI50 [2]: > 100 µM (inactive)
- GI50 [3]: > 100 µM (inactive)
- GI50 [4]: > 100 µM (inactive)
- GI50 [5]: > 100 µM (inactive)
- GI50 [6]: > 100 µM (inactive)
- GI50 [7]: > 100 µM (inactive)
- GI50 [8]: > 100 µM (inactive)
- GI50 [9]: 45.8 µM (inactive)
- GI50 [10]: > 100 µM (inactive)
- GI50 [11]: > 100 µM (inactive)
- GI50 [12]: > 100 µM (inactive)
- GI50 [13]: > 100 µM (inactive)
- GI50 [14]: > 100 µM (inactive)
- GI50 [15]: > 100 µM (inactive)
- GI50 [16]: > 100 µM (inactive)
- GI50 [17]: > 100 µM (inactive)
- GI50 [18]: > 100 µM (inactive)
- GI50 [19]: > 100 µM (inactive)
- GI50 [20]: > 100 µM (inactive)
- GI50 [21]: > 100 µM (inactive)
- GI50 [22]: > 100 µM (inactive)
- GI50 [23]: > 100 µM (inactive)
- GI50 [24]: > 100 µM
- GI50 [25]: > 100 µM (inactive)
- GI50 [26]: > 100 µM (inactive)
- GI50 [27]: > 100 µM (inactive)
- GI50 [28]: > 100 µM (inactive)
- GI50 [29]: > 100 µM (inactive)
- GI50 [30]: > 100 µM (inactive)
- GI50 [31]: > 100 µM (inactive)
- GI50 [32]: > 100 µM (inactive)
- GI50 [33]: > 100 µM (inactive)
- GI50 [34]: > 100 µM (inactive)
- GI50 [35]: > 100 µM (inactive)
- GI50 [36]: > 100 µM (inactive)
- GI50 [37]: > 100 µM (inactive)
- GI50 [38]: > 100 µM (inactive)
- GI50 [39]: > 100 µM (inactive)
- GI50 [40]: > 100 µM (inactive)
- GI50 [41]: > 100 µM (inactive)
- GI50 [42]: > 100 µM (inactive)
- GI50 [43]: > 100 µM (inactive)
- GI50 [44]: > 100 µM (inactive)
- GI50 [45]: > 100 µM (inactive)
- GI50 [46]: > 100 µM (inactive)
- GI50 [47]: 90.6 µM (inactive)
- GI50 [48]: > 100 µM (inactive)
- GI50 [49]: > 100 µM (inactive)
- GI50 [50]: > 100 µM (inactive)
- GI50 [51]: > 100 µM (inactive)
- GI50 [52]: > 100 µM (inactive)
- GI50 [53]: > 100 µM (inactive)
- GI50 [54]: > 100 µM (inactive)
- GI50 [55]: > 100 µM (inactive)
- GI50 [56]: > 100 µM (inactive)
- GI50 [57]: > 100 µM (inactive)
- GI50 [58]: > 100 µM (inactive)

Structure (SMILES): CC(Oc1ccccc1Cl)C(=O)NN1C(=O)CSC1c1ccc(Cl)cc1 (stereo not drawn)
- GI50 [1]: 18.5 µM (inactive)
- GI50 [2]: 20.7 µM (inactive)
- GI50 [3]: 26.8 µM (inactive)
- GI50 [4]: 23.4 µM (inactive)
- GI50 [5]: 23.9 µM (inactive)
- GI50 [6]: 35.1 µM (inactive)
- GI50 [7]: 20.1 µM (inactive)
- GI50 [8]: < 0.01 µM (active)
- GI50 [9]: 19.8 µM (inactive)
- GI50 [10]: 17.3 µM (inactive)
- GI50 [11]: 16.4 µM (inactive)
- GI50 [12]: 21.9 µM (inactive)
- GI50 [13]: 27.2 µM (inactive)
- GI50 [14]: 17.9 µM (inactive)
- GI50 [15]: 18.2 µM (inactive)
- GI50 [16]: 23.6 µM (inactive)
- GI50 [17]: 22.8 µM (inactive)
- GI50 [18]: 17.3 µM (inactive)
- GI50 [19]: 21.7 µM (inactive)
- GI50 [20]: 15.2 µM (inactive)
- GI50 [21]: 27 µM (inactive)
- GI50 [22]: 18.4 µM (inactive)
- GI50 [23]: 20.6 µM (inactive)
- GI50 [24]: 19.5 µM
- GI50 [25]: 23.6 µM (inactive)
- GI50 [26]: 17.4 µM (inactive)
- GI50 [27]: 18.5 µM (inactive)
- GI50 [28]: 25.8 µM (inactive)
- GI50 [29]: 23.4 µM (inactive)
- GI50 [30]: 23.3 µM (inactive)
- GI50 [31]: 22.9 µM (inactive)
- GI50 [32]: 18.9 µM (inactive)
- GI50 [33]: 18.2 µM (inactive)
- GI50 [34]: 19.8 µM (inactive)
- GI50 [35]: 19.6 µM (inactive)
- GI50 [36]: 17.6 µM (inactive)
- GI50 [37]: 14.5 µM (inactive)
- GI50 [38]: 6.73 µM (inactive)
- GI50 [39]: 20.4 µM (inactive)
- GI50 [59]: 18.4 µM (inactive)
- GI50 [40]: 18.8 µM (inactive)
- GI50 [41]: 7.64 µM (inactive)
- GI50 [42]: 18.1 µM (inactive)
- GI50 [43]: 16 µM (inactive)
- GI50 [44]: 18.1 µM (inactive)
- GI50 [45]: 24.8 µM (inactive)
- GI50 [46]: 17.8 µM (inactive)
- GI50 [47]: 17.8 µM (inactive)
- GI50 [48]: 19.6 µM (inactive)
- GI50 [49]: 23 µM (inactive)
- GI50 [51]: 19.3 µM (inactive)
- GI50 [52]: 15.2 µM (inactive)
- GI50 [53]: 20 µM (inactive)
- GI50 [54]: 13.7 µM (inactive)
- GI50 [55]: 14.8 µM (inactive)
- GI50 [56]: 25.4 µM (inactive)
- GI50 [57]: 21.3 µM (inactive)
- GI50 [58]: 0.17 µM (active)

Structure (SMILES): Cc1cc(S(=O)(=O)/N=C(\NN)NNc2cccc(C(F)(F)F)n2)c(S)cc1Cl
- GI50 [2]: > 10 µM (inactive)
- GI50 [3]: 22.6 µM (inactive)
- GI50 [4]: 18.5 µM (inactive)
- GI50 [5]: 19.8 µM (inactive)
- GI50 [6]: 18.9 µM (inactive)
- GI50 [7]: 17.8 µM (inactive)
- GI50 [8]: 21.3 µM (inactive)
- GI50 [9]: 22.1 µM (inactive)
- GI50 [10]: 29 µM (inactive)
- GI50 [11]: 18.2 µM (inactive)
- GI50 [12]: 25.5 µM (inactive)
- GI50 [13]: 21.4 µM (inactive)
- GI50 [14]: 32.1 µM (inactive)
- GI50 [15]: 18.5 µM (inactive)
- GI50 [16]: 20.8 µM (inactive)
- GI50 [17]: 14.9 µM (inactive)
- GI50 [18]: 31.4 µM (inactive)
- GI50 [19]: 24.3 µM (inactive)
- GI50 [20]: 19.4 µM (inactive)
- GI50 [21]: 19.1 µM (inactive)
- GI50 [22]: 16.5 µM (inactive)
- GI50 [23]: 21.4 µM (inactive)
- GI50 [24]: 18.8 µM
- GI50 [25]: 32.6 µM (inactive)
- GI50 [26]: 19.6 µM (inactive)
- GI50 [27]: 22.8 µM (inactive)
- GI50 [28]: 26.2 µM (inactive)
- GI50 [29]: 24.8 µM (inactive)
- GI50 [30]: 22.1 µM (inactive)
- GI50 [31]: 14.6 µM (inactive)
- GI50 [32]: 17.3 µM (inactive)
- GI50 [33]: 18.3 µM (inactive)
- GI50 [34]: 19.7 µM (inactive)
- GI50 [35]: 18.9 µM (inactive)
- GI50 [36]: 20 µM (inactive)
- GI50 [37]: 21.3 µM (inactive)
- GI50 [38]: 22.7 µM (inactive)
- GI50 [39]: 22.2 µM (inactive)
- GI50 [59]: 17.9 µM (inactive)
- GI50 [40]: 25.4 µM (inactive)
- GI50 [41]: 27.4 µM (inactive)
- GI50 [42]: 16.9 µM (inactive)
- GI50 [43]: 24.4 µM (inactive)
- GI50 [44]: > 10 µM (inactive)
- GI50 [45]: 21.5 µM (inactive)
- GI50 [46]: 16.8 µM (inactive)
- GI50 [47]: 16.7 µM (inactive)
- GI50 [48]: 19.5 µM (inactive)
- GI50 [49]: 15 µM (inactive)
- GI50 [50]: 19.2 µM (inactive)
- GI50 [52]: 14.8 µM (inactive)
- GI50 [53]: 4.21 µM (inactive)
- GI50 [54]: 14.4 µM (inactive)
- GI50 [55]: 30.6 µM (inactive)
- GI50 [56]: 26.9 µM (inactive)
- GI50 [57]: 13.3 µM (inactive)
- GI50 [58]: 23.3 µM (inactive)
